In PMC4286281, “Profiling of the Tox21 Chemical Collection for Mitochondrial Function to Identify Compounds that Acutely Decrease Mitochondrial Membrane Potential” (Environmental Health Perspectives, 2014):
Counter-ions that a name gives are not always drawn. Like-named read-outs stand apart in the source and are kept apart here.

System: mitochondrial membrane potential (MMP) in HepG2 cells
Assay: qHTS mitochondrial membrane potential (MMP) assay with m-MPI dye, multiplexed with CellTiter-Glo cell viability
Format: cell-based, human
Settings: for Emax: read-out: Efficacy; for MMP assay activity outcome (active antagonist / inactive / inconclusive): call from triplicate runs, multichannel readout and cell viability
[1] = Homo sapiens, HepG2, 1 h, read-out: Potency
[2] = Homo sapiens, HepG2 cells, 1 hr treatment, ratio 590 nm/535 nm, read-out: IC50 in the MMP assay (decrease of MMP)
[3] = Table S4, 20 most potent active compounds for the MMP screen, HepG2, 1 hr
[4] = Table S4, 20 most potent active compounds for the MMP screen, HepG2, 1 hr, read-out: Potency
[5] = HepG2 cells, 1 hr treatment, ratio 590 nm/535 nm, read-out: IC50 in the MMP assay (decrease of MMP)

Compound: Nc1ccc(N)c2c1C(=O)c1ccccc1C2=O [1,4-Diaminoanthraquinone]
- Emax (Homo sapiens, HepG2, 1 h): 82%
- IC50 [1]: 33.1 nM

Compound: O=C1c2c(O)ccc([N+](=O)[O-])c2C(=O)c2c([N+](=O)[O-])ccc(O)c21 [1,8-Dihydroxy-4,5-dinitroanthraquinone]
- Efficacy: 86.4%
- IC50 (read-out: Potency): 73.4 nM

Compound: O=C(c1ccccc1O)c1ccccc1O [2,2´-dihydroxybenzophenone]
- IC50 [2]: 14100 nM

Compound: Oc1c(Cl)c(Cl)c(Cl)c(Cl)c1Cl [2,3,4,5,6-pentachlorophenol]
- MMP assay activity outcome (active antagonist / inactive / inconclusive) (HepG2 cells, 1 hr treatment): active

Compound: NNc1nc(-c2ccc(N)cc2)cs1 [2-Hydrazino-4-(4-aminophenyl) thiazole]
- Efficacy [3]: 82.5%
- IC50 [4]: 63.5 nM

Compound: COc1ccc(C(=O)c2ccccc2)c(O)c1 [2-hydroxy-4-methoxybenzophenone]
- MMP assay activity outcome (active antagonist / inactive / inconclusive) (HepG2 cells, 1 hr treatment): not active

Compound: O=C(c1ccccc1)c1ccccc1O [2-hydroxybenzophenone]
- MMP assay activity outcome (active antagonist / inactive / inconclusive) (HepG2 cells, 1 hr treatment): inactive

Compound: O=C(c1ccccc1)c1cccc(O)c1 [3-hydroxybenzophenone]
- IC50 [2]: 27700 nM

Compound: O=C(c1ccc(Cl)cc1)c1ccc(Cl)cc1 [4,4´-dichlorobenzophenone]
- MMP assay activity outcome (active antagonist / inactive / inconclusive) (HepG2 cells, 1 hr treatment): inactive

Compound: O=C(c1ccc(O)cc1)c1ccc(O)cc1 [4,4´-dihydoxybenzophenone]
- MMP assay activity outcome (active antagonist / inactive / inconclusive) (HepG2 cells, 1 hr treatment): inconclusive

Compound: CC(C)(c1ccccc1)c1ccc(O)cc1 [4-(1-methyl-1-phenylethyl)phenol]
- MMP assay activity outcome (active antagonist / inactive / inconclusive) (HepG2 cells, 1 hr treatment): active

Compound: Nc1ccc(O)cc1 [4-aminophenol]
- MMP assay activity outcome (active antagonist / inactive / inconclusive) (HepG2 cells, 1 hr treatment): active

Compound: O=C(c1ccccc1)c1ccc(O)cc1 [4-hydroxybenzophenone]
- IC50 [2]: 41300 nM

Compound: Cc1ccc(C(=O)c2ccccc2)cc1 [4-methylbenzophenone]
- MMP assay activity outcome (active antagonist / inactive / inconclusive) (HepG2 cells, 1 hr treatment): inactive

Compound: O=C(c1ccccc1)c1ccccc1 [Benzophenone]
- MMP assay activity outcome (active antagonist / inactive / inconclusive) (HepG2 cells, 1 hr treatment): inactive

Compound: CCC[CH2][Sn]([CH2]CCC)([CH2]CCC)[O][Sn]([CH2]CCC)([CH2]CCC)[CH2]CCC [Bis(tributyltin)oxide]
- Efficacy: 112.1%
- Potency rank in the MMP screen: among the most potent compounds
- IC50 (read-out: Potency): 91.1 nM

Compound: Cl.N=C1C=CC(=C(c2ccc(N)cc2)c2ccc(N)cc2)C=C1 [C.I. Basic red 9 monohydrochloride]
- Potency rank in the MMP screen (HepG2 cells, 1 hr treatment): among the most potent compounds
- Efficacy [3]: 95.3%
- IC50 [4]: 77 nM

Compound: CCOCn1c(-c2ccc(Cl)cc2)c(C#N)c(Br)c1C(F)(F)F [Chlorfenapyr]
- Emax (Homo sapiens, HepG2, 1 h): 105%
- IC50 [1]: 74.1 nM

Compound: CCN1/C(=C/C=C/C=C/c2sc3ccccc3[n+]2CC)Sc2ccccc21 [Dithiazanine iodide]
- Emax (Homo sapiens, HepG2, 1 h): 85.4%
- IC50 [1]: 95.8 nM

Compound: N#CC(C#N)=NNc1ccc(OC(F)(F)F)cc1 [FCCP, carbonyl cyanide 4-(trifluoromethoxy) phenylhydrazone, reference compound]
- IC50 (Homo sapiens, HepG2, 1 h, read-out: IC50 of the positive control, decrease of MMP (mean ± SD)): 110 ± 70 nM

Compound: O=C1OC2(c3ccc(O)cc3Oc3cc(O)ccc32)c2ccccc21 [Fluorescein]
- Emax (Homo sapiens, HepG2, 1 h): 112%
- IC50 [1]: 105 nM

Compound: CN(C)c1ccc(C(=C2C=CC(=[N+](C)C)C=C2)c2ccc(N(C)C)cc2)cc1 [Gentian violet]
- Emax (Homo sapiens, HepG2, 1 h): 91.9%
- IC50 [1]: 78.8 nM

Compound: O=C(Nc1ccc([N+](=O)[O-])cc1Cl)c1cc(Cl)ccc1O [Niclosamide, reference compound]
- Emax (Homo sapiens, HepG2, 1 h): 97.7%
- IC50 [1]: 26.3 nM

Compound: COc1cccc2c1C(=O)c1c(O)c3c(c(O)c1C2=O)C[C@@](O)(C(=O)CO)C[C@@H]3O[C@H]1C[C@H](N)[C@H](O[C@@H]2CCCCO2)[C@H](C)O1 [Pirarubicin, reference compound]
- IC50 [2]: 600 nM

Compound: C[C@@H]1O[C@@H](O[C@@H]2C=C3CC[C@@H]4[C@H](CC[C@]5(C)[C@@H](c6ccc(=O)oc6)CC[C@]45O)[C@@]3(C)CC2)[C@H](O)[C@H](O)[C@H]1O [Proscillaridin, reference compound]
- Potency rank in the MMP screen (HepG2 cells, 1 hr treatment): among the most potent compounds
- Emax (Homo sapiens, HepG2, 1 h): 72.4%
- IC50 [1]: 86.8 nM

Compound: CCC[CH2][Sn]([Cl])([CH2]CCC)[CH2]CCC [Tributyltin chloride]
- Efficacy: 96.9%
- Potency rank in the MMP screen: among the most potent compounds
- IC50 (read-out: Potency): 107 nM

Compound: CC(=O)[O][Sn]([c]1ccccc1)([c]1ccccc1)[c]1ccccc1 [Triphenyltin acetate]
- Efficacy: 98.7%
- Potency rank in the MMP screen (HepG2 cells, 1 hr treatment): among the most potent compounds
- IC50 (read-out: Potency): 117 nM

Compound: [OH-].c1cc[c]([Sn+]([c]2ccccc2)[c]2ccccc2)cc1 [Triphenyltin hydroxide]
- Efficacy: 94.7%
- Potency rank in the MMP screen (HepG2 cells, 1 hr treatment): among the most potent compounds
- IC50 (read-out: Potency): 122 nM

Compound: CC[C@@]1(O)C[C@H](O[C@H]2C[C@H](N(C)C)[C@H](O[C@H]3C[C@H](O)[C@H](O[C@H]4CCC(=O)[C@H](C)O4)[C@H](C)O3)[C@H](C)O2)c2c(cc3c(c2O)C(=O)c2c(O)cccc2C3=O)[C@H]1C(=O)OC [aclarubicin hydrochloride, reference compound]
- MMP assay activity outcome (active antagonist / inactive / inconclusive) (HepG2 cells, 1 hr treatment): active

Compound: COc1cccc2c1C(=O)c1c(O)c3c(c(O)c1C2=O)C[C@@](O)(C(=O)CO)C[C@@H]3O[C@H]1C[C@H](N)[C@H](O)[C@H](C)O1 [adriamycin hydrochloride, reference compound]
- MMP assay activity outcome (active antagonist / inactive / inconclusive) (HepG2 cells, 1 hr treatment): inactive

Compound: ClC1=C(Cl)C2(Cl)C3C4C=CC(C4)C3C1(Cl)C2(Cl)Cl (stereo not shown) [aldrin]
- MMP assay activity outcome (active antagonist / inactive / inconclusive) (HepG2 cells, 1 hr treatment): active as antagonists

Compound: CCN=C1C=CC(=C(c2ccc(N(CC)CC)cc2)c2ccc(N(CC)CC)cc2)c2ccccc21.Cl [basic blue 7, Basic blue 7]
- Potency rank in the MMP screen (HepG2 cells, 1 hr treatment): among the most potent compounds
- IC50 [5]: 18.5 nM
- Efficacy [3]: 86.6%

Compound: CCC/C=C/C=C/C(=O)O[C@H]1/C(=C/C(=O)OC)C[C@H]2C[C@H]([C@@H](C)O)OC(=O)C[C@H](O)C[C@@H]3C[C@H](OC(C)=O)C(C)(C)[C@](O)(C[C@@H]4C/C(=C/C(=O)OC)C[C@H](/C=C/C(C)(C)[C@]1(O)O2)O4)O3 [bryostatin 1, Bryostatin 1, reference compound]
- Emax (Homo sapiens, HepG2, 1 h): 105%
- IC50 [1]: 9.58 nM
- IC50 [2]: 9.6 nM

Compound: CCN1/C(=C/C=C/c2ccc3ccccc3[n+]2CC)C=Cc2ccccc21.[I-] [carbocyanine, Carbocyanine]
- Efficacy [3]: 90.7%
- IC50 [4]: 14.7 nM

Compound: O=C(O)C1C(C(=O)O)C2(Cl)C(Cl)=C(Cl)C1(Cl)C2(Cl)Cl (stereo not shown) [chlorendic acid]
- MMP assay activity outcome (active antagonist / inactive / inconclusive) (HepG2 cells, 1 hr treatment): inactive

Compound: CO[C@@H]1[C@H](O)C[C@@H](O[C@@H]2C[C@H](Oc3cc4cc5c(c(O)c4c(O)c3C)C(=O)[C@@H](O[C@H]3C[C@@H](O[C@H]4C[C@@H](O[C@H]6C[C@](C)(O)[C@@H](OC(C)=O)[C@H](C)O6)[C@H](O)[C@@H](C)O4)[C@H](O)[C@@H](C)O3)[C@H]([C@H](OC)C(=O)[C@@H](O)[C@@H](C)O)C5)O[C@H](C)[C@@H]2OC(C)=O)O[C@@H]1C [chromomycin A3]
- MMP assay activity outcome (active antagonist / inactive / inconclusive) (HepG2 cells, 1 hr treatment): active

Compound: O=[N+]([O-])c1ccc(O)c([N+](=O)[O-])c1 [dinitrophenol, reference compound]
- MMP assay activity outcome (active antagonist / inactive / inconclusive) (HepG2 cells, 1 hr treatment): inconclusive antagonist (cytotoxic)

Compound: CCCCCCCCCCCCOC(=O)c1ccc(O)cc1 [dodecylparaben]
- IC50 [5]: 4200 nM

Compound: COC(=O)c1ccc(O)cc1 [methylparaben]
- MMP assay activity outcome (active antagonist / inactive / inconclusive) (HepG2 cells, 1 hr treatment): inactive

Compound: COc1ccc(C(=O)c2ccc(C)cc2)c(O)c1 [mexenone]
- MMP assay activity outcome (active antagonist / inactive / inconclusive) (HepG2 cells, 1 hr treatment): not active

Compound: C[C@@H]1O[C@@H](O[C@H]2C[C@@H](O)[C@]3(CO)[C@H]4[C@H](O)C[C@]5(C)[C@@H](C6=CC(=O)OC6)CC[C@]5(O)[C@@H]4CC[C@]3(O)C2)[C@H](O)[C@H](O)[C@H]1O [ouabain, reference compound]
- Potency rank in the MMP screen (HepG2 cells, 1 hr treatment): among the most potent compounds

Compound: COc1ccc(Cc2nccc3cc(OC)c(OC)cc23)cc1OC [papaverine, reference compound]
- MMP assay activity outcome (active antagonist / inactive / inconclusive) (HepG2 cells, 1 hr treatment): inconclusive antagonist (cytotoxic)

Compound: CCCCCOC(=O)c1ccc(O)cc1 [pentylparaben]
- IC50 [2]: 8700 nM

Compound: CCCOC(=O)c1ccc(O)cc1 [propylparaben]
- IC50 [2]: 38600 nM

Compound: C=C(C)[C@H]1Cc2c(ccc3c2O[C@@H]2COc4cc(OC)c(OC)cc4[C@@H]2C3=O)O1 [rotenone, reference compound]
- MMP assay activity outcome (active antagonist / inactive / inconclusive) (HepG2 cells, 1 hr treatment): inconclusive antagonist (cytotoxic)

Compound: CC1(C)C(C(Cl)Cl)C2(Cl)C(Cl)C(Cl)C1(Cl)C2(Cl)Cl (stereo not shown) [toxaphene]
- MMP assay activity outcome (active antagonist / inactive / inconclusive) (HepG2 cells, 1 hr treatment): active as antagonists

Compound: CCCCC(=O)OCC(=O)[C@]1(O)Cc2c(O)c3c(c(O)c2[C@@H](O[C@H]2C[C@H](NC(=O)C(F)(F)F)[C@H](O)[C@H](C)O2)C1)C(=O)c1c(OC)cccc1C3=O [valrubicin, reference compound]
- IC50 [2]: 1900 nM

Compound: Methyl violet
- Efficacy: 121.5%
- Potency rank in the MMP screen (HepG2 cells, 1 hr treatment): among the most potent compounds
- IC50 (read-out: Potency): 65.3 nM

Compound: plicamycin [reference compound]
- MMP assay activity outcome (active antagonist / inactive / inconclusive) (HepG2 cells, 1 hr treatment): active
